Data on seven compounds can be found in article PMC4849045, “Hepatoprotective Limonoids from Andiroba (Carapa guianensis)” (International Journal of Molecular Sciences, 2016).

The test system of data set [1] is primary cultured mouse hepatocytes. Briefly: D-GalN-induced cytotoxicity in primary cultured mouse hepatocytes (MTT assay). The following applies: Hepatocyte, read-out: Inhibition (%) of D-GalN-induced cytotoxicity. For orientation: Tetrazolium assays rely on reduction of a dye to a coloured formazan, in cell work by metabolically active cells.
Protocol: Assay for the D-GalN-induced cytotoxicity in primary cultured mouse hepatocytes was performed as described previously [33, 35, 36].
Data set [2] relates to mouse peritoneal macrophages. The following applies: mean ± S.E.M. (n = 4), cited from earlier work.
In a further data set the test system is L929 cells. Briefly: TNF-α-induced cytotoxicity in L929 cells (MTT assay). Format: cell-based. The settings on record: Mus musculus; for inhibition at 3 µM / inhibition at 10 µM / inhibition at 30 µM / inhibition at 1 µM: read-out: Inhibition (%) of TNF-α-induced cytotoxicity; for IC50: read-out: IC50, inhibition of TNF-α-induced decrease in cell viability. How it is done:
The effects of the limonoids (1–17) on the sensitivity of hepatocytes to TNF-α were assessed by measuring TNF-α-induced decreases in the viability of L929 cells, a TNF-α-sensitive cell line, by using the MTT assay. In the absence of a test sample, the cells incubated with 1 ng/mL TNF-α for 44 h were compared with those not incubated with TNF-α.
Assay for the TNF-α-induced cytotoxicity in L929 cells was performed as described previously. Silybin was used as a reference compound [36].

Data set [3] deals with LPS-activated NO production in mouse peritoneal macrophages. The following applies: cited from earlier work; for Inhibition (%) of LPS-activated NO production: mean ± S.E.M. (n = 4); for IC50: mouse peritoneal macrophages, read-out: IC50, inhibition of LPS-activated NO production.
Data set [4] can be described thus: Cell viability of LPS-treated mouse peritoneal macrophages (MTT assay). It counts as cell-based. The settings on record: mean ± S.E.M. (n = 4), read-out: cell viability (%) in MTT assay (values in parentheses) (converted); for viability at 100 µM: # = cytotoxic effects were observed.
Data set [5] concerns LPS-activated NO production in mouse peritoneal macrophages. The data set is described as follows: LPS-induced NO production in mouse peritoneal macrophages. The following applies: Peritoneal macrophage; for inhibition at 3 µM / inhibition at 10 µM / inhibition at 30 µM / inhibition at 100 µM: Mus musculus, mean ± S.E.M. (n = 4), read-out: Inhibition (%) of LPS-activated NO production; for IC50: mouse peritoneal macrophages, read-out: IC50, inhibition of LPS-activated NO production. It counts as cell-based. The procedure:
The effects of limonoids (1–17) on NO production were examined to provide an estimation of macrophage activation levels in LPS-treated mouse peritoneal macrophages.
Assay for NO production in TGC-induced mouse peritoneal macrophages was performed as described previously. N^G-Monomethyl-L-arginine (L-NMMA) and caffeic acid phenethyl ester (CAPE) were used as reference compounds [33, 36].

Where [6] appears, read: 100 µM, # = cytotoxic effects were observed.
[7] abbreviates: L929, 3 µM, 1 ng/mL TNF-α, 44 h, mean ± S.E.M. (n = 4).
Where [8] appears, read: L929, 10 µM, 1 ng/mL TNF-α, 44 h, mean ± S.E.M. (n = 4).
[9] abbreviates: L929, 30 µM, 1 ng/mL TNF-α, 44 h, mean ± S.E.M. (n = 4).
The mark [10] stands for this setting: 10 µM, # = cytotoxic effects were observed.
[11] abbreviates: 30 µM, # = cytotoxic effects were observed.
[12] abbreviates: LPS-treated TGC-induced mouse peritoneal macrophages.

Where two headings read alike, the source gives them in different places.

As usually defined, the inhibition is the change of the read-out against control, counted positive when it falls. In general, IC50 refers to the concentration needed to halve the response being measured. Turning to `CC1(C)C(=O)C=C[C@@]2(C)C1C[C@@H](O)[C@]1(C)C2CC[C@@]2(C)[C@H](c3ccoc3)OC(=O)[C@H]3O[C@]321` (stereo partly drawn) [compound 4, 7-deacetoxy-7α-hydroxygedunin], the inhibition at 3 µM is -2 ± 1.4% in data set [1] and -6.5 ± 2.4% in the data set with L929 cells (L929, 44 h). For the same compound, the inhibition at 10 µM in data set [1] is -6.3 ± 0.5%; in the data set on L929 cells (L929, 44 h) it was 2.7 ± 2.3%. The inhibition at 30 µM in data set [1] is -8 ± 0.4%; with L929 cells (L929, 44 h) it was 36.5 ± 1.8%. Besides, in data set [1], the inhibition at 100 µM was -4.1 ± 0.7%. The “cell viability (%) in MTT assay (values in parentheses)” value (“cell viability (%) in MTT assay” below) in data set [2] (3 µM) is on record as 110.3 ± 5.9%; in data set [2] (10 µM) it was 106.6 ± 3.1%; in data set [2] (30 µM) it was 96.3 ± 4.6%; in data set [2] (setting [6]), 2.6 ± 0.5%. Moreover, the “Inhibition (%) of LPS-activated NO production” value in data set [3] (3 µM) is on record as 15.7 ± 4.6%; in data set [3] (10 µM) it was 55.7 ± 4.0%; in data set [3] (30 µM) it was 98.8 ± 0.4%; in data set [3] (100 µM) it was 100.2 ± 0.2%. Besides, in data set [3], the IC50 was 8.7 µM.
For `CC(=O)O[C@@H]1[C@H](O)C2C(C)(C)C(=O)C=C[C@]2(C)C2CC[C@@]3(C)[C@H](c4ccoc4)OC(=O)[C@H]4O[C@]43[C@@]21C` (stereo partly drawn) [compound 6, 6α-hydroxygedunin], the inhibition at 3 µM in data set [1] is -7.2 ± 2.4%; in the data set on L929 cells (setting [7]), 6.7 ± 1.5%. In addition, the inhibition at 10 µM was -9.4 ± 0.8% in data set [1] and 12.1 ± 3% in the data set on L929 cells (setting [8]). The inhibition at 30 µM in data set [1] was -0.1 ± 0.7%; in the data set on L929 cells (setting [9]), 28.3 ± 1.7%. In data set [1], the inhibition at 100 µM was -2.8 ± 0.5%. Besides, the “cell viability (%) in MTT assay” value in data set [2] (3 µM) is recorded as 88.4 ± 3.0%; in data set [2] (10 µM), 87.6 ± 4.0%; in data set [2] (30 µM), 90.4 ± 2.6%; in data set [2] (setting [6]) it was 82.2 ± 4.2%. Besides, the inhibition at 1 µM in the data set on L929 cells (L929, 1 µM, 1 ng/mL TNF-α, 44 h, mean ± S.E.M. (n = 4)) was determined as 8.1 ± 1.9%. Also, the “Inhibition (%) of LPS-activated NO production” value was 7.7 ± 7.1% in data set [3] (3 µM), 20.7 ± 4.3% in data set [3] (10 µM), 64.0 ± 3.1% in data set [3] (30 µM) and 97.3 ± 0.3% in data set [3] (100 µM). The IC50 in data set [3] was 19.1 µM.
As to `[H]/N=C(/NC)NCCC[C@H](N)C(=O)O` [L-NMMA, N^G-monomethyl-L-arginine, reference compound], the “cell viability (%) in MTT assay” value is reported as 101.1 ± 5.7% in data set [2] (3 µM), 100.7 ± 6.2% in data set [2] (setting [10]), 102.6 ± 4.2% in data set [2] (setting [11]) and 106.4 ± 4.6% in data set [2] (setting [6]). Besides, the “Inhibition (%) of LPS-activated NO production” value in data set [3] (3 µM) was 1.4 ± 2.8%; in data set [3] (10 µM) it was 19.9 ± 2.8%; in data set [3] (30 µM) it was 43.0 ± 2.1%; in data set [3] (100 µM), 70.9 ± 1.6%. Also, the IC50 in data set [3] is 36 µM.
As for `C=C1[C@@H]2CC[C@@]3(C)[C@H](c4ccoc4)OC(=O)C[C@]13O[C@H]1CC(=O)C(C)(C)[C@H](CC(=O)OC)[C@]12C` [compound 7, methyl angolensate], the inhibition at 3 µM in data set [1] was -2.1 ± 1.2%; with L929 cells (L929, 44 h), 0.6 ± 2.9%. Besides, the inhibition at 10 µM was -7.5 ± 0.9% in data set [1] and 13.3 ± 2.6% in the data set on L929 cells (L929, 44 h). The inhibition at 30 µM is -6.3 ± 0.7% in data set [1] and 24.6 ± 2.9% in the data set on L929 cells (L929, 44 h). Besides, the inhibition at 100 µM in data set [1] is -6.6 ± 1%. Besides, the “cell viability (%) in MTT assay” value in data set [2] (3 µM) was 108.8 ± 11.0%; in data set [2] (10 µM), 108.8 ± 5.5%; in data set [2] (30 µM), 111.0 ± 4.5%; in data set [2] (setting [6]) it was 78.1 ± 5.3%. The inhibition at 1 µM in the data set on L929 cells (L929, 44 h) is -0.5 ± 3.5%. For the same compound, the “Inhibition (%) of LPS-activated NO production” value was 10.1 ± 4.2% in data set [3] (3 µM), 20.0 ± 8.1% in data set [3] (10 µM), 42.2 ± 3.5% in data set [3] (30 µM) and 24.0 ± 4.2% in data set [3] (100 µM). Moreover, the IC50 in data set [3] was over 100 µM.
Consider `O=C(/C=C/c1ccc(O)c(O)c1)OCCc1ccccc1` [CAPE, caffeic acid phenethyl ester, reference compound], for which the “cell viability (%) in MTT assay” value in data set [2] (3 µM) was 95.4 ± 0.7%; in data set [2] (setting [10]), 70.0 ± 4.0%; in data set [2] (setting [11]), 71.4 ± 6.0%; in data set [2] (setting [6]) it was 53.0 ± 1.4%. The “Inhibition (%) of LPS-activated NO production” value is listed as 5.9 ± 5.2% in data set [3] (3 µM), 44.4 ± 3.2% in data set [3] (10 µM), 86.2 ± 1.1% in data set [3] (30 µM) and 99.6 ± 0.1% in data set [3] (100 µM). In addition, the IC50 in data set [3] was 11 µM.
The term viability denotes a read-out of living cells in per cent, often relative to untreated cells. For `COC(=O)CC1C(C)C(=O)C2(CC3(O)C4CC(=O)OC(c5ccoc5)C4(C)CCC3(O)O2)C(OC(=O)C(C)C)C1(C)C` (stereo not drawn) [compound 17, carapanolide A], in data set [1], the inhibition at 3 µM is -6.8 ± 1.2%, the inhibition at 10 µM is -8.3 ± 0.7%, the inhibition at 30 µM was -4.5 ± 0.6% and the inhibition at 100 µM was -7 ± 0.6%. In data set [4] (setting [12]), the viability at 3 µM was 103%, the viability at 10 µM is 104%, the viability at 30 µM is 110% and the viability at 100 µM is 91.3%. The inhibition at 3 µM with L929 cells (setting [7]) is 8.8 ± 6.5%. Besides, the inhibition at 10 µM in the data set with L929 cells (setting [8]) is 21.5 ± 5.5%. For the same compound, in the data set on L929 cells (setting [9]), the inhibition at 30 µM is 58.2 ± 4.7%. Moreover, in the data set with L929 cells (L929 cells, 1 ng/mL TNF-α, 44 h), the IC50 is 25.3 µM. In data set [5], the inhibition at 3 µM is -0.6 ± 2.1%, the inhibition at 10 µM stood at 1.2 ± 2%, the inhibition at 30 µM worked out at 41.1 ± 1% and the inhibition at 100 µM came out at 4.9 ± 1.8%. Moreover, the 50% inhibitory concentration (IC50) in data set [5] was over 100 µM.
Consider `CC(=O)O[C@@H]1C[C@H]2C(C)(C)C(=O)C=C[C@]2(C)[C@H]2CC[C@@]3(C)[C@H](c4ccoc4)C(=O)[C@H]4O[C@]43[C@@]21C` [compound 8, epoxyazadiradione], for which, in data set [1], the inhibition at 3 µM is -3.1 ± 8.9%, the inhibition at 10 µM is -2.2 ± 2.5%, the inhibition at 30 µM was -10.8 ± 0.6% and the inhibition at 100 µM is -11.9 ± 0.3%. In data set [4], the viability at 3 µM was 99.6%, the viability at 10 µM was 94.8%, the viability at 30 µM is 81.9% and the viability at 100 µM is 10%. Moreover, in the data set with L929 cells (L929, 44 h), the IC50 amounted to 10.2 µM, the inhibition at 3 µM worked out at 13.7 ± 3.9%, the inhibition at 10 µM came to 39.1 ± 6.5% and the inhibition at 30 µM was 91.5 ± 11.4%. Further, in data set [5], the inhibition at 3 µM is 10.5 ± 0.9%, the inhibition at 10 µM was found to be 56 ± 4%, the inhibition at 30 µM was 103 ± 4% and the inhibition at 100 µM amounted to 112.3 ± 0.7%. Further, the IC50 in data set [5] is 8.2 µM.
